The values that follow come from patent publication US20080226714A1, “SUSTAINED-RELEASE TABLET FORMULATIONS OF PIPERAZINE-PIPERIDINE ANTAGONISTS AND AGONISTS OF THE 5-HT1A RECEPTOR HAVING ENHANCED INTESTINAL DISSOLUTION” (WYETH, priority 2007, published 2008).

For orientation: solubility means how much of the substance goes into solution per volume.

Converted amounts (≈) assume the structure as drawn. Like-named read-outs stand apart in the source and are kept apart here.

One data set is described as follows: physchem. It counts as physicochemical. An excerpt:
(§1) Pharmaceutical compounds that interact with the 5-HT1A receptor are useful to treat a wide variety of central nervous system disorders, such as cognition disorders, anxiety disorders, and depression. Certain piperazine-piperidine compounds have shown utility as 5-HT1A receptor antagonists, agonists and partial antagonist/agonists. See, for example, U.S. Patent Publication No. 2007/0027160, filed Jun. 9, 2006, entitled “piperazine-Piperidine Antagonists And Agonists Of The 5-HT1A Receptor”. […] During development of 5-fluoro-8-{4-[4-(6-methoxyquinolin-8-yl)piperazin-1-yl]piperidin-1-yl}quinoline, it was discovered that the compound has a pH-dependent solubility. […] Therefore, the rate of systemic input of 5-fluoro-8-{4-[4-(6-methoxyquinolin-8-yl)piperazin-1-yl]piperidin-1-yl}quinoline will be dependent on the dissolution or solubilization of the compound. […] A controlled-release formulation to reduce the dose frequency of 5-fluoro-8-{4-[4-(6-methoxyquinolin-8-yl)piperazin-1-yl]piperidin-1-yl}quinoline would be beneficial for improving compliance and convenience. However, this type of formulation presents the challenge of maintaining the dissolution of the compound in the lower gastrointestinal tract where solubility is very low.

Data set [1] can be described thus: Permeability characteristics in animal studies. It is filed as in vivo.
Excerpt: as §1

Data set [2] in a line: Preclinical half-life after IV bolus. It counts as in vivo. Conditions: Sprague-Dawley rats, 0.3 mg/kg IV bolus. An excerpt:
See, for example, U.S. Patent Publication No. 2007/0027160, filed Jun. 9, 2006, entitled “piperazine-Piperidine Antagonists And Agonists Of The 5-HT1A Receptor”.

On to `COc1cc(N2CCN(C3CCN(c4ccc(F)c5cccnc45)CC3)CC2)c2ncccc2c1.O=C(O)CCC(=O)O.O=C(O)CCC(=O)O.O=C(O)CCC(=O)O` [5-fluoro-8-{4-[4-(6-methoxyquinolin-8-yl)piperazin-1-yl]piperidin-1-yl}quinoline trisuccinate], for which the solubility entry was “sub-microgram per milliliter level” in “physchem” (trisuccinate salt, pH greater than about six) and ~1000 µg/mL in the data set “physchem” (water, trisuccinate salt, aqueous, read-out: aqueous solubility).

For the molecule `COc1cc(N2CCN(C3CCN(c4ccc(F)c5cccnc45)CC3)CC2)c2ncccc2c1` [5-fluoro-8-{4-[4-(6-methoxyquinolin-8-yl)piperazin-1-yl]piperidin-1-yl}quinoline], the permeability result in data set [1] is recorded as “high permeability”. Moreover, the t1/2 result in data set [2] was “about one”. Moreover, the solubility in the data set “physchem” (free base, water, read-out: water solubility) is ~0.04 µg/mL (≈ 0.0848 µM); in “physchem” (pH 2.4, aqueous buffer, pH about 2.4, read-out: solubility), ~2200 µg/mL (≈ 4670 µM); in the data set “physchem” (pH 6, aqueous buffer, pH levels greater than about 6, read-out: solubility), < 1 µg/mL; in “physchem” (pH 8.9, aqueous buffer, pH about 8.9, read-out: solubility) it was ~0.036 µg/mL (≈ 0.0763 µM).
